In patent publication US20210230203A1, “Amphiphilic Kanamycin Compositions and Methods” (priority 2020, published 2021):
Converted amounts (≈) assume the structure as drawn.

Columns and labels:
Cryptococcus neoformans = assay: MIC against yeast, CLSI M27 & M38 (Table 2); conditions: 24-72 hours
Rhizopus arrhizus = assay: MIC against filamentous and dimorphic fungi, CLSI M27 & M38 (Table 3); assay type: cell-based; conditions: 24-72 hours
Candida parapsilosis = assay: MIC against yeast, CLSI M27 & M38 (Table 2); conditions: Table 2, RPMI 0.165M MOPS, 24-72 hours
Rhodotorula pilimanae = assay: MIC against fungal strains (Table 1); assay type: cell-based
C. parapsilosis = assay: MIC against various species, CLSI M27 & M38 (Table 4); conditions: C. parapsilosis QC ATCC 22019; Table 4; RPMI 0.165M MOPS; 24-72 hours
[1] = tested on: S. aureus (ATCC 33591) MRSA; assay type: cell-based
Histoplasma capsulatum = assay: microbe, parasite or virus in culture; assay type: cell-based; conditions: Table 3, RPMI 0.165M MOPS, 24-72 hours
P. variotil = assay: MIC against various species, CLSI M27 & M38 (Table 4); assay type: cell-based, Paecilomyces variotii; conditions: P. variotil QC, RPMI 0.165M MOPS, 24-72 hours
Candida glabrata = assay: MIC against yeast, CLSI M27 & M38 (Table 2); conditions: 24-72 hours
Candida albicans 64124 = assay: MIC against fungal strains (Table 1); assay type: cell-based
Candida auris = assay: MIC against yeast, CLSI M27 & M38 (Table 2); conditions: 24-72 hours
Candida guillermondii = assay: MIC against yeast, CLSI M27 & M38 (Table 2); conditions: 24-72 hours
Candida albicans MYA2876 = assay: MIC against fungal strains (Table 1); assay type: cell-based; conditions: Candida albicans MYA2876
[2] = tested on: Cryptococcus neoformans H99; assay: MIC against fungal strains (Table 1); assay type: cell-based; conditions: Cryptococcus neoformans H99
Scedosporium = assay: MIC against various species, CLSI M27 & M38 (Table 4); conditions: 24-72 hours
P. variatii = assay: MIC against filamentous and dimorphic fungi, CLSI M27 & M38 (Table 3); assay type: cell-based, Paecilomyces variotii; conditions: P. variatii MYA-3630, RPMI 0.165M MOPS, 24-72 hours
A. furnigatus = assay: MIC against various species, CLSI M27 & M38 (Table 4); conditions: 24-72 hours
C. krusei = assay: MIC against yeast, CLSI M27 & M38 (Table 2); conditions: C. krusei ATCC 6258; Table 2; RPMI 0.165M MOPS; 24-72 hours
Apaphysomyces = assay: MIC against various species, CLSI M27 & M38 (Table 4); assay type: cell-based, Apophysomyces; conditions: 24-72 hours
[3] = Cryptococcus neoformans CN1, RPMI 0.165M MOPS
[4] = Cryptococcus neoformans H99, RPMI 0.165M MOPS
[5] = Cryptococcus neoformans USC1597, RPMI 0.165M MOPS
[6] = Rhizopus arrhizus 99-880, RPMI 0.165M MOPS
[7] = Rhizopus arrhizus 99-892, RPMI 0.165M MOPS
[8] = Rhizopus arrhizus RA1, RPMI 0.165M MOPS
[9] = Candida glabrata CG1, RPMI 0.165M MOPS
[10] = Candida glabrata CG2, RPMI 0.165M MOPS
[11] = Candida glabrata CG3, RPMI 0.165M MOPS
[12] = Candida auris CAU1, RPMI 0.165M MOPS
[13] = Candida auris CAU2, RPMI 0.165M MOPS
[14] = Candida auris CAU3, RPMI 0.165M MOPS
[15] = Candida auris CAU4, RPMI 0.165M MOPS
[16] = Candida auris CAU5, RPMI 0.165M MOPS
[17] = Candida auris CAU6, RPMI 0.165M MOPS
[18] = Candida auris CAU7, RPMI 0.165M MOPS
[19] = Candida auris DI17-46, RPMI 0.165M MOPS
[20] = Candida auris DI17-47, RPMI 0.165M MOPS
[21] = Candida auris DI17-48, RPMI 0.165M MOPS
[22] = Candida guillermondii CGUI1, RPMI 0.165M MOPS
[23] = Candida guillermondii CGUI2, RPMI 0.165M MOPS
[24] = Candida guillermondii CGUI3, RPMI 0.165M MOPS
[25] = Scedosporium SA1, RPMI 0.165M MOPS
[26] = Scedosporium SB1, RPMI 0.165M MOPS
[27] = A. furnigatus AF1, RPMI 0.165M MOPS
[28] = A. furnigatus AF2, RPMI 0.165M MOPS
[29] = A. furnigatus AF3, RPMI 0.165M MOPS
[30] = Apaphysomyces APO1, RPMI 0.165M MOPS
[31] = Apaphysomyces APO2, RPMI 0.165M MOPS
[32] = Apaphysomyces APO3, RPMI 0.165M MOPS

CCCCCCCCCCCCCCCC(=O)NC[C@H]1O[C@H](O[C@H]2[C@H](O)[C@@H](O[C@H]3O[C@H](CO)[C@@H](O)[C@H](N)[C@H]3O)[C@H](N)C[C@@H]2N)[C@H](O)[C@@H](O)[C@@H]1O [KI06]
Minimum inhibitory concentration 50% (Cryptococcus neoformans; [3]): 4 µg/mL (≈ 5.53 µM) | Minimum inhibitory concentration 100% (Cryptococcus neoformans; [3]): 4 µg/mL (≈ 5.53 µM) | Minimum inhibitory concentration 50% (Cryptococcus neoformans; [4]): 4 µg/mL (≈ 5.53 µM) | Minimum inhibitory concentration 100% (Cryptococcus neoformans; [4]): 4 µg/mL (≈ 5.53 µM) | Minimum inhibitory concentration 50% (Cryptococcus neoformans; [5]): 4 µg/mL (≈ 5.53 µM) | Minimum inhibitory concentration 100% (Cryptococcus neoformans; [5]): 4 µg/mL (≈ 5.53 µM) | Minimum inhibitory concentration 50% (Rhizopus arrhizus; [6]): 2 µg/mL (≈ 2.77 µM) | Minimum inhibitory concentration 100% (Rhizopus arrhizus; [6]): 4 µg/mL (≈ 5.53 µM) | Minimum inhibitory concentration 50% (Rhizopus arrhizus; [7]): 2 µg/mL (≈ 2.77 µM) | Minimum inhibitory concentration 100% (Rhizopus arrhizus; [7]): 4 µg/mL (≈ 5.53 µM) | Minimum inhibitory concentration 50% (Rhizopus arrhizus; [8]): 2 µg/mL (≈ 2.77 µM) | Minimum inhibitory concentration 100% (Rhizopus arrhizus; [8]): 4 µg/mL (≈ 5.53 µM) | Minimum inhibitory concentration 50% (Candida parapsilosis; C. parapsilosis ATCC 22019): 4 µg/mL (≈ 5.53 µM) | Minimum inhibitory concentration 100% (Candida parapsilosis; C. parapsilosis ATCC 22019): 8 µg/mL (≈ 11.1 µM) | Minimum inhibitory concentration 50% (Candida parapsilosis; Candida parapsilosis CP1): 4 µg/mL (≈ 5.53 µM) | Minimum inhibitory concentration 100% (Candida parapsilosis; Candida parapsilosis CP1): 8 µg/mL (≈ 11.1 µM) | Minimum inhibitory concentration 50% (Candida parapsilosis; Candida parapsilosis CP2): 4 µg/mL (≈ 5.53 µM) | Minimum inhibitory concentration 100% (Candida parapsilosis; Candida parapsilosis CP2): 8 µg/mL (≈ 11.1 µM) | Minimum inhibitory concentration 50% (Candida parapsilosis; Candida parapsilosis CP3): 8 µg/mL (≈ 11.1 µM) | Minimum inhibitory concentration 100% (Candida parapsilosis; Candida parapsilosis CP3): 16 µg/mL (≈ 22.1 µM) | Minimum inhibitory concentration (Rhodotorula pilimanae): 4 µg/mL (≈ 5.53 µM) | Minimum inhibitory concentration 50% (C. parapsilosis): 4 µg/mL (≈ 5.53 µM) | Minimum inhibitory concentration 100% (C. parapsilosis): 8 µg/mL (≈ 11.1 µM) | Minimum inhibitory concentration [1]: 16 µg/mL (≈ 22.1 µM) | Minimum inhibitory concentration 50% (Histoplasma capsulatum; Histoplasma capsulatum HC1): 2 µg/mL (≈ 2.77 µM) | Minimum inhibitory concentration 100% (Histoplasma capsulatum; Histoplasma capsulatum HC1): 4 µg/mL (≈ 5.53 µM) | Minimum inhibitory concentration 50% (Histoplasma capsulatum; Histoplasma capsulatum HC2): 4 µg/mL (≈ 5.53 µM) | Minimum inhibitory concentration 100% (Histoplasma capsulatum; Histoplasma capsulatum HC2): 8 µg/mL (≈ 11.1 µM) | Minimum inhibitory concentration 50% (Histoplasma capsulatum; Histoplasma capsulatum HC3): 2 µg/mL (≈ 2.77 µM) | Minimum inhibitory concentration 100% (Histoplasma capsulatum; Histoplasma capsulatum HC3): 4 µg/mL (≈ 5.53 µM) | Minimum inhibitory concentration 50% (P. variotil): 8 µg/mL (≈ 11.1 µM) | Minimum inhibitory concentration 100% (P. variotil): 8 µg/mL (≈ 11.1 µM) | Minimum inhibitory concentration 50% (Candida glabrata; [9]): 4 µg/mL (≈ 5.53 µM) | Minimum inhibitory concentration 100% (Candida glabrata; [9]): 8 µg/mL (≈ 11.1 µM) | Minimum inhibitory concentration 50% (Candida glabrata; [10]): 4 µg/mL (≈ 5.53 µM) | Minimum inhibitory concentration 100% (Candida glabrata; [10]): 4 µg/mL (≈ 5.53 µM) | Minimum inhibitory concentration 50% (Candida glabrata; [11]): 4 µg/mL (≈ 5.53 µM) | Minimum inhibitory concentration 100% (Candida glabrata; [11]): 4 µg/mL (≈ 5.53 µM) | Minimum inhibitory concentration (Candida albicans 64124): 8 µg/mL (≈ 11.1 µM) | Minimum inhibitory concentration 50% (Candida auris; [12]): 4 µg/mL (≈ 5.53 µM) | Minimum inhibitory concentration 100% (Candida auris; [12]): 8 µg/mL (≈ 11.1 µM) | Minimum inhibitory concentration 50% (Candida auris; [13]): 4 µg/mL (≈ 5.53 µM) | Minimum inhibitory concentration 100% (Candida auris; [13]): 8 µg/mL (≈ 11.1 µM) | Minimum inhibitory concentration 50% (Candida auris; [14]): 4 µg/mL (≈ 5.53 µM) | Minimum inhibitory concentration 100% (Candida auris; [14]): 8 µg/mL (≈ 11.1 µM) | Minimum inhibitory concentration 50% (Candida auris; [15]): 8 µg/mL (≈ 11.1 µM) | Minimum inhibitory concentration 100% (Candida auris; [15]): 8 µg/mL (≈ 11.1 µM) | Minimum inhibitory concentration 50% (Candida auris; [16]): 8 µg/mL (≈ 11.1 µM) | Minimum inhibitory concentration 100% (Candida auris; [16]): 8 µg/mL (≈ 11.1 µM) | Minimum inhibitory concentration 50% (Candida auris; [17]): 4 µg/mL (≈ 5.53 µM) | Minimum inhibitory concentration 100% (Candida auris; [17]): 8 µg/mL (≈ 11.1 µM) | Minimum inhibitory concentration 50% (Candida auris; [18]): 4 µg/mL (≈ 5.53 µM) | Minimum inhibitory concentration 100% (Candida auris; [18]): 8 µg/mL (≈ 11.1 µM) | Minimum inhibitory concentration 50% (Candida auris; [19]): 8 µg/mL (≈ 11.1 µM) | Minimum inhibitory concentration 100% (Candida auris; [19]): 8 µg/mL (≈ 11.1 µM) | Minimum inhibitory concentration 50% (Candida auris; [20]): 8 µg/mL (≈ 11.1 µM) | Minimum inhibitory concentration 100% (Candida auris; [20]): 8 µg/mL (≈ 11.1 µM) | Minimum inhibitory concentration 50% (Candida auris; [21]): 4 µg/mL (≈ 5.53 µM) | Minimum inhibitory concentration 100% (Candida auris; [21]): 8 µg/mL (≈ 11.1 µM) | Minimum inhibitory concentration 50% (Candida guillermondii; [22]): 4 µg/mL (≈ 5.53 µM) | Minimum inhibitory concentration 100% (Candida guillermondii; [22]): 8 µg/mL (≈ 11.1 µM) | Minimum inhibitory concentration 50% (Candida guillermondii; [23]): 4 µg/mL (≈ 5.53 µM) | Minimum inhibitory concentration 100% (Candida guillermondii; [23]): 8 µg/mL (≈ 11.1 µM) | Minimum inhibitory concentration 50% (Candida guillermondii; [24]): 4 µg/mL (≈ 5.53 µM) | Minimum inhibitory concentration 100% (Candida guillermondii; [24]): 8 µg/mL (≈ 11.1 µM) | Minimum inhibitory concentration (Candida albicans MYA2876): 8 µg/mL (≈ 11.1 µM) | Minimum inhibitory concentration [2]: 4 µg/mL (≈ 5.53 µM) | Minimum inhibitory concentration 50% (Scedosporium; [25]): 2 µg/mL (≈ 2.77 µM) | Minimum inhibitory concentration 100% (Scedosporium; [25]): 4 µg/mL (≈ 5.53 µM) | Minimum inhibitory concentration 50% (Scedosporium; [26]): 1 µg/mL (≈ 1.38 µM) | Minimum inhibitory concentration 100% (Scedosporium; [26]): 8 µg/mL (≈ 11.1 µM) | Minimum inhibitory concentration 50% (P. variatii): 8 µg/mL (≈ 11.1 µM) | Minimum inhibitory concentration 100% (P. variatii): 16 µg/mL (≈ 22.1 µM) | Minimum inhibitory concentration 50% (A. furnigatus; [27]): 8 µg/mL (≈ 11.1 µM) | Minimum inhibitory concentration 100% (A. furnigatus; [27]): 8 µg/mL (≈ 11.1 µM) | Minimum inhibitory concentration 50% (A. furnigatus; [28]): 32 µg/mL (≈ 44.3 µM) | Minimum inhibitory concentration 100% (A. furnigatus; [28]): 32 µg/mL (≈ 44.3 µM) | Minimum inhibitory concentration 50% (A. furnigatus; [29]): 8 µg/mL (≈ 11.1 µM) | Minimum inhibitory concentration 100% (A. furnigatus; [29]): 16 µg/mL (≈ 22.1 µM) | Minimum inhibitory concentration 50% (C. krusei): 8 µg/mL (≈ 11.1 µM) | Minimum inhibitory concentration 100% (C. krusei): 8 µg/mL (≈ 11.1 µM) | Minimum inhibitory concentration 50% (Apaphysomyces; [30]): 2 µg/mL (≈ 2.77 µM) | Minimum inhibitory concentration 100% (Apaphysomyces; [30]): 2 µg/mL (≈ 2.77 µM) | Minimum inhibitory concentration 50% (Apaphysomyces; [31]): 1 µg/mL (≈ 1.38 µM) | Minimum inhibitory concentration 100% (Apaphysomyces; [31]): 4 µg/mL (≈ 5.53 µM) | Minimum inhibitory concentration 50% (Apaphysomyces; [32]): 1 µg/mL (≈ 1.38 µM) | Minimum inhibitory concentration 100% (Apaphysomyces; [32]): 4 µg/mL (≈ 5.53 µM)
